Reference: the supplement of paper PMC10307832

compound: CC1=C(C(=NN1)C)CC2=C(C3=C(S2)N(C(=O)N(C3=O)C)CC(C)C)C(=O)N4C[C@@H](CO4)O + O=C(c1cc(Cc2n[nH]c(=O)c3ccccc23)ccc1F)N1CCN(C(=O)C2CC2)CC1 [Olaparib] (partner 8 µM); experiment: relative viability (nuclei count vs DMSO), 5 days (fraction); higher = more cells survive; conditions: first compound 0.007906 µM
How it was run: (§1)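 Relative viability divides the nuclei count in treated wells by that in vehicle wells. Lung cancer cell lines were seeded in 1536-well plates, dosed by pin tool the next day, and fixed and stained after 5 days in one step with final 0.05% Triton X-100, 1% formaldehyde and 1 ug/ml Hoechst. Dosing was a single drug or a fixed anchor-drug dose plus five library-drug doses (not always all listed) in √10 steps, and values are medians of duplicate plates imaged at 4×.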

Compared with NCI-H2085, Calu-6 is lower in relative viability: 0.686 for the first, 0.501 for the second.

Compared with HCC-366, NCI-H1666 is higher in relative viability: 0.473 for the first, 0.742 for the second.

Compared with NCI-H596, LK-2 is lower in relative viability: 0.743 for the first, 0.608 for the second.

Compared with NCI-H2087, NCI-H2342 is lower in relative viability: 0.661 for the first, 0.473 for the second.

First: SK-MES-1
Second: H3255
The relative viability of the first is higher: 0.756 for the first, 0.56 for the second.

Compared with COR-L23, COR-L 105 is higher in relative viability: 0.33 for the first, 0.587 for the second.

First: IA-LM
Second: LOU-NH91
The relative viability of the first is higher: 1.03 for the first, 0.877 for the second.

Compared with ChaGo-K-1, NCI-H2170 is higher in relative viability: 0.42 for the first, 0.636 for the second.

First: A549
Second: SW 900
The relative viability of the first is lower: 0.391 for the first, 1.09 for the second.

First: NCI-H1648
Second: NCI-H2009
The relative viability of the first is higher: 0.724 for the first, 0.682 for the second.

First: NCI-H661
Second: SK-LU-1
The relative viability of the first is higher: 0.738 for the first, 0.366 for the second.

First: NCI-H1299
Second: CAL-12T
The relative viability of the first is higher: 0.991 for the first, 0.704 for the second.

First: NCI-H2228
Second: NCI-H2023
The relative viability of the first is higher: 0.745 for the first, 0.496 for the second.

same assay, conditions: first compound 0.025 µM

Going from NCI-H522 to NCI-H727, the relative viability rises from 0.53 to 0.747.

First: NCI-H1650
Second: EBC-1
The relative viability of the first is higher: 0.759 for the first, 0.718 for the second.

Compared with NCI-H1703, NCI-H1993 is higher in relative viability: 0.422 for the first, 0.947 for the second.

Going from SW 1573 to NCI-H838, the relative viability rises from 0.521 to 0.639.

Compared with LCLC-103H, NCI-H520 is lower in relative viability: 0.762 for the first, 0.26 for the second.

Going from NCI-H2126 to EMC-BAC-2, the relative viability falls from 0.874 to 0.474.

First: NCI-H2085
Second: Calu-6
The relative viability of the first is higher: 0.704 for the first, 0.557 for the second.

First: HCC-366
Second: NCI-H1666
The relative viability of the first is lower: 0.357 for the first, 0.766 for the second.

Going from NCI-H596 to LK-2, the relative viability falls from 0.73 to 0.504.

Compared with NCI-H2087, NCI-H2342 is lower in relative viability: 0.598 for the first, 0.374 for the second.

Compared with SK-MES-1, H3255 is lower in relative viability: 0.691 for the first, 0.52 for the second.

Going from COR-L23 to COR-L 105, the relative viability rises from 0.298 to 0.617.

Going from IA-LM to LOU-NH91, the relative viability rises from 0.807 to 0.925.

Compared with ChaGo-K-1, NCI-H2170 is higher in relative viability: 0.414 for the first, 0.676 for the second.

First: A549
Second: SW 900
The relative viability of the first is lower: 0.355 for the first, 0.846 for the second.

Going from NCI-H1648 to NCI-H2009, the relative viability rises from 0.63 to 0.649.

Compared with NCI-H661, SK-LU-1 is lower in relative viability: 0.681 for the first, 0.266 for the second.

First: NCI-H1299
Second: CAL-12T
The relative viability of the first is higher: 0.975 for the first, 0.67 for the second.

Compared with NCI-H2228, NCI-H2023 is lower in relative viability: 0.786 for the first, 0.449 for the second.

same assay, conditions: first compound 0.07906 µM

Going from NCI-H522 to NCI-H727, the relative viability rises from 0.4 to 0.782.

Compared with NCI-H1650, EBC-1 is higher in relative viability: 0.79 for the first, 0.836 for the second.

Compared with NCI-H1703, NCI-H1993 is higher in relative viability: 0.41 for the first, 0.844 for the second.

Compared with SW 1573, NCI-H838 is higher in relative viability: 0.468 for the first, 0.65 for the second.

First: LCLC-103H
Second: NCI-H520
The relative viability of the first is higher: 0.753 for the first, 0.253 for the second.

Going from NCI-H2126 to EMC-BAC-2, the relative viability falls from 0.865 to 0.489.

Compared with NCI-H2085, Calu-6 is lower in relative viability: 0.72 for the first, 0.59 for the second.

Going from HCC-366 to NCI-H1666, the relative viability rises from 0.294 to 0.769.

Going from NCI-H596 to LK-2, the relative viability falls from 0.696 to 0.556.

Going from NCI-H2087 to NCI-H2342, the relative viability falls from 0.727 to 0.425.

First: SK-MES-1
Second: H3255
The relative viability of the first is higher: 0.82 for the first, 0.546 for the second.

Going from COR-L23 to COR-L 105, the relative viability rises from 0.328 to 0.771.

First: IA-LM
Second: LOU-NH91
The relative viability of the first is lower: 0.757 for the first, 0.956 for the second.

Compared with ChaGo-K-1, NCI-H2170 is higher in relative viability: 0.404 for the first, 0.597 for the second.

First: A549
Second: SW 900
The relative viability of the first is lower: 0.358 for the first, 1 for the second.

First: NCI-H1648
Second: NCI-H2009
The relative viability of the first is higher: 0.782 for the first, 0.711 for the second.

Compared with NCI-H661, SK-LU-1 is lower in relative viability: 0.782 for the first, 0.332 for the second.

First: NCI-H1299
Second: CAL-12T
The relative viability of the first is higher: 1.01 for the first, 0.755 for the second.

Going from NCI-H2228 to NCI-H2023, the relative viability falls from 0.786 to 0.435.

same assay, conditions: first compound 0.25 µM

Compared with NCI-H522, NCI-H727 is higher in relative viability: 0.348 for the first, 0.568 for the second.

First: NCI-H1650
Second: EBC-1
The relative viability of the first is higher: 0.797 for the first, 0.748 for the second.

Going from NCI-H1703 to NCI-H1993, the relative viability rises from 0.447 to 0.912.

First: SW 1573
Second: NCI-H838
The relative viability of the first is lower: 0.492 for the first, 0.604 for the second.

Compared with LCLC-103H, NCI-H520 is lower in relative viability: 0.773 for the first, 0.272 for the second.

Compared with NCI-H2126, EMC-BAC-2 is lower in relative viability: 0.914 for the first, 0.527 for the second.

Going from NCI-H2085 to Calu-6, the relative viability falls from 0.752 to 0.603.

First: HCC-366
Second: NCI-H1666
The relative viability of the first is lower: 0.371 for the first, 0.725 for the second.

First: NCI-H596
Second: LK-2
The relative viability of the first is higher: 0.635 for the first, 0.6 for the second.

First: NCI-H2087
Second: NCI-H2342
The relative viability of the first is higher: 0.701 for the first, 0.403 for the second.

Going from SK-MES-1 to H3255, the relative viability falls from 0.774 to 0.576.

Compared with COR-L23, COR-L 105 is higher in relative viability: 0.325 for the first, 0.656 for the second.

First: IA-LM
Second: LOU-NH91
The relative viability of the first is lower: 0.865 for the first, 0.926 for the second.

Going from ChaGo-K-1 to NCI-H2170, the relative viability rises from 0.435 to 0.666.

First: A549
Second: SW 900
The relative viability of the first is lower: 0.4 for the first, 0.893 for the second.

Compared with NCI-H1648, NCI-H2009 is lower in relative viability: 0.887 for the first, 0.721 for the second.

Compared with NCI-H661, SK-LU-1 is lower in relative viability: 0.77 for the first, 0.377 for the second.

Going from NCI-H1299 to CAL-12T, the relative viability falls from 0.988 to 0.772.

Compared with NCI-H2228, NCI-H2023 is lower in relative viability: 0.993 for the first, 0.51 for the second.

compound: Cc1ccccc1C(C(=O)NC1CCCCC1)N(C(=O)Cn1ccnc1C)c1cccc(F)c1 [IDH-C35] + Nc1ncn([C@H]2C[C@H](O)[C@@H](CO)O2)c(=O)n1 [Decitabine] (partner 2 µM); experiment: as above; conditions: first compound 0.08 µM
How it was run: as §1

First: NCI-H522
Second: NCI-H727
The relative viability of the first is lower: 0.604 for the first, 0.797 for the second.

Going from NCI-H1650 to NCI-H1993, the relative viability rises from 0.417 to 0.586.

First: SW 1573
Second: NCI-H838
The relative viability of the first is higher: 0.491 for the first, 0.446 for the second.

First: LCLC-103H
Second: NCI-H520
The relative viability of the first is higher: 0.81 for the first, 0.407 for the second.

Going from NCI-H2126 to EMC-BAC-2, the relative viability rises from 0.573 to 1.03.

Compared with NCI-H2085, HCC-366 is lower in relative viability: 0.543 for the first, 0.359 for the second.

Going from NCI-H1666 to NCI-H596, the relative viability rises from 0.676 to 1.06.

Compared with LK-2, NCI-H2087 is lower in relative viability: 0.327 for the first, 0.284 for the second.
